# Reference: patent US20220218800A1, “BETA-LACTAMASE COMPOSITIONS FOR TREATMENT OF GRAFT VERSUS HOST DISEASE” (Synthetic Biologics, Inc., priority 2019, published 2022)
# Like-named read-outs stand apart in the source and are kept apart here.
# Key:
# total bacteria = assay: 16S sequencing of mouse stool: total bacteria copies per gram of stool; type: in vivo, mice; conditions: FIG. 3
# Description: (§1) Mice received a subcutaneous administration of 125 mg/kg piperacillin/tazobactam twice per day for two days. […] A control cohort of mice received neither piperacillin/tazobactam nor P3A via oral gavage. Another control cohort of mice received P3A only.
# 16S sequencing analysis was also performed to evaluate the total bacteria copies present per gram of mouse stool.
# 129S1 mice [1] = assay: Survival study of antibiotic-exacerbated GVHD after bone marrow transplantation (P3A); type: in vivo; conditions: BM+T cells; piperacillin/tazobactam 100 mg/kg s.c. + P3A 20 mg/kg oral gavage three times per week from day 10; endpoint 30 days post-BMT; FIG. 4
# Description: This experiment was conducted to assess the effect of SYN-004 administration on protecting and/or reducing GVHD severity associated with bone marrow transplantation.
# 129S1 mice were lethally irradiated and then transplanted with bone marrow cells (B6 donor bone marrow) at 5M and defined doses of splenic T lymphocytes from C57BL/6 mice at 2M. Both of these mice share the MHC-type H2b and thus represent a clinically relevant MHC-matched transplantation model.
# [2] = Piperacillin levels in mouse stool after s.c. piperacillin/tazobactam with or without oral P3A; type: in vivo, mice; conditions: piperacillin/tazobactam 500 mg/kg s.c. twice per day for two days + P3A liquid formulation 10 mg/kg oral gavage twice per day for two days; FIG. 1
# Description: Mice received a subcutaneous administration of 500 mg/kg piperacillin/tazobactam twice per day for two days. […] A control cohort of mice received neither piperacillin/tazobactam nor P3A via oral gavage.
# After 2 days, mouse stool was evaluated for presence of piperacillin.
# [3] = system: Firmicutes bacterial phylum; assay: 16S sequencing of mouse stool: Firmicutes level, piperacillin/tazobactam with or without P3A; type: in vivo, mice; conditions: FIG. 2
# Description: as §1
# Enterococcus [4] = assay: 16S sequencing of stool at day 21 post-transplantation: Enterococcus monodomination (SYN-004); type: in vivo, 129S1 mice
# Description: This experiment was conducted to assess the effect of SYN-004 administration on modulating and/or reducing Enterococcus monodomination. The experiment was also designed to assess whether SYN-004 administration could prevent the decrease of microbiome diversity in lethally irradiated mice having undergone a bone marrow transplantation.
# 129S1 mice were lethally irradiated and then transplanted with bone marrow cells (B6 donor bone marrow) at 5M and defined doses of splenic T lymphocytes from C57BL/6 mice at 2M. The mice were divided in three cohorts: (1) a cohort that received administration of saline; (2) a cohort that received administration of piperacillin/tazobactam; and (3) a cohort that received administration of piperacillin/tazobactam (Zosyn, abbreviated as ZO) and SYN-004 (P3A; abbreviated as Blact).
# Stool samples were collected at day 21 post-transplantation and 16S sequencing analysis was performed.
# Enterococcus [5] = assay: 16S sequencing of mouse stool: Enterococcus monodomination, imipenem+cilastatin with or without SYN-006; type: in vivo, mice; conditions: FIG. 8; for largest bars (genus) in 16S analysis, post-antibiotic: post-abx; for Enterococcus monodominance in stool: vs imipenem+cilastatin only
# Description: (§2) Next, experiments were conducted to assess the effect of SYN-006 (P2A) administration on modulating and/or reducing Enterococcus monodomination, and specifically, overgrowth of Enterococcus faecium, in imipenem-treated mice.
# (§3) Mice received a subcutaneous administration of 100 mg/kg imipenem+cilastatin for two days, with stool samples collected on the third day. […] Stool samples were collected on day 3 and 16S sequencing analysis was performed.
# [6] = system: Firmicutes bacterial phylum; conditions: stool day 3, FIG. 7
# Description: Experiments were conducted to determine whether a liquid formulation of SYN-006 (e.g., a beta-lactamase in a phosphate-buffered saline solution) could be delivered to the small and large intestine of mice via oral gavage.
# Mice received a subcutaneous administration of 100 mg/kg imipenem+cilastatin for two days, with stool samples collected on the third day.
# On day 3, mouse stool was collected.
# Enterococcus faecium = assay: Relative abundance of Enterococcus faecium in stool of imipenem-treated mice; type: in vivo; conditions: imipenem+cilastatin 100 mg/kg s.c. alone or with P2A 1, 10, 50 mg/kg oral gavage; FIG. 9
# Description: as §2, §3
# 129S1 mice [7] = assay: Survival study of antibiotic-exacerbated GVHD after bone marrow transplantation (P2A); type: in vivo; conditions: BM+T cells; imipenem+cilastatin 100 mg/kg s.c. + P2A 50 mg/kg oral gavage three times per week days 10-25; endpoint 40 days post-BMT; p=0.0096, Mantel-Cox test; FIG. 10
# Description: This experiment was conducted to assess the effect of SYN-006 (P2A) administration on protecting and/or reducing GVHD severity associated with bone marrow transplantation.
# 129S1 mice were lethally irradiated and then transplanted with bone marrow cells (B6 donor bone marrow) at 5M and defined doses of splenic T lymphocytes from C57BL/6 mice at 2M. Both of these mice share the MHC-type H2^b and thus represent a clinically relevant MHC-matched transplantation model.
# [8] = piperacillin/tazobactam 125 mg/kg s.c. + P3A 10 mg/kg oral gavage, twice per day for two days
# [9] = piperacillin/tazobactam alone, 125 mg/kg s.c. twice per day for two days
molecule,measurement,setting,value
SYN-004: beta-lactamase with the amino acid sequence of SEQ ID NO: 1; D276N relative to P1A,total bacterial copies present in mouse stool,total bacteria; [8],decrease was reduced
same,"survival (mortality), antibiotic-exacerbated GVHD",129S1 mice [1],reduced antibiotic-exacerbated GVHD
same,amount of piperacillin in mouse stool,[2],reduced
same,fold abundance of Firmicutes in mouse stool,[3]; [8],recovered and protected
same,largest bars (genus) in 16S analysis,"Enterococcus [4]; FIG. 5, Zosyn+SYN-004",Clostridium
same,largest bars (genus) in 16S analysis,"Enterococcus [4]; FIG. 6, BM (bone marrow) group, ZO+Blact",Enterococcus in the first two bars from the left and Clostridium in the next two bars from the left
same,largest bars (genus) in 16S analysis,"Enterococcus [4]; FIG. 6, BM+T cells group, ZO+Blact",Clostridium
same,Enterococcus monodominance in stool,"Enterococcus [4]; piperacillin/tazobactam + SYN-004 vs piperacillin/tazobactam only, day 21 post-transplantation, FIG. 5 and 6",reduced Enterococcus monodominance
imipenem+cilastatin [reference compound],"largest bars (genus) in 16S analysis, post-antibiotic",Enterococcus [5]; imipenem group (no P2A),Enterococcus
piperacillin/tazobactam [reference compound],total bacterial copies present in mouse stool,total bacteria; [9],decreased
same,abundance of Firmicutes in mouse stool,[3]; [9],reduced
same,largest bars (genus) in 16S analysis,"Enterococcus [4]; FIG. 5, Zosyn alone",Enterococcus
same,largest bars (genus) in 16S analysis,"Enterococcus [4]; FIG. 6, BM (bone marrow) group, ZO alone",Enterococcus
same,largest bars (genus) in 16S analysis,"Enterococcus [4]; FIG. 6, BM+T cells group, ZO alone",Enterococcus
"SYN-006: beta-lactamase polypeptide with the sequence of SEQ ID NO: 6 (protein, Synthetic polymer.) ETGTISISQLNKNVWVHTELGYFNGEAVPSNGLVLNTSKGLVLVDSSWDNKLTKELIEMVEKKFQKRVTDVIITHAHADRIGGITALKERGIKAHSTALTAELAKNSGYEEPLGDLQTITSLKFGNTKVETFYPGKGHTEDNIVVWLPQYQILAGGCLVKSAEAKDLGNVADAYVNEWSTSIENVLKRYGNINSVVPGHGEVGDKGLLLHTLDLLK",fold abundance of Firmicutes in mouse stool,[6]; imipenem+cilastatin 100 mg/kg s.c. for two days + P2A 10 mg/kg oral gavage twice per day,recovered and protected
same,fold abundance of Firmicutes in mouse stool,[6]; imipenem+cilastatin 100 mg/kg s.c. for two days + P2A 50 mg/kg oral gavage twice per day,recovered and protected
same,"largest bars (genus) in 16S analysis, post-antibiotic",Enterococcus [5]; imipenem+P2A (1 mg) group,Enterococcus
same,"largest bars (genus) in 16S analysis, post-antibiotic",Enterococcus [5]; imipenem+P2A (10 mg) group,Clostridium
same,"largest bars (genus) in 16S analysis, post-antibiotic",Enterococcus [5]; imipenem+P2A (50 mg) group,Lactobacillus and Clostridium
same,Enterococcus monodominance in stool,Enterococcus [5]; imipenem+cilastatin 100 mg/kg s.c. + SYN-006 10 mg/kg oral gavage twice per day for two days,reduced Enterococcus monodominance
same,Enterococcus monodominance in stool,Enterococcus [5]; imipenem+cilastatin 100 mg/kg s.c. + SYN-006 50 mg/kg oral gavage twice per day for two days,reduced Enterococcus monodominance
same,overgrowth (relative abundance) of Enterococcus faecium in mouse stool,Enterococcus faecium,prevents overgrowth of Enterococcus faecium
same,"survival (mortality), antibiotic-exacerbated GVHD",129S1 mice [7],reduced antibiotic-exacerbated GVHD
